In brackets after ≈: the same amount, converted by molar mass. Where two headings read alike, the source gives them in different places.

By Solubility is commonly meant how much of the substance goes into solution per volume.

For data set [1] the following is noted: cited from earlier work.
Data set [2] in a line: Previous experiments: dissolution in water of a composition of gallic acid alone. The format is physicochemical. Particulars: composition composed only of gallic acid, no excipient. The text has this: In order to avoid this problem, excipients of different nature but without algicidal, algistatic, herbicidal or herbistatic effect are preferably added. The excipients are desirable to allow a rapid descent on the bottom of the various conditioning, the dissolution of the active substance or optionally of the active substances and secondly to create a stratum of a density greater than that of the water by a thickening action.

As to `O=C(O)/C=C/c1ccc(O)c(O)c1` [Caffeic Acid, (E) 3-(3,4-dihydroxyphenyl)prop-2-enoic acid], the “Solubility in water (in words)” value in data set [1] (water) is “poorly soluble in water”.

Consider `O=c1oc2c(O)c(O)cc3c(=O)oc4c(O)c(O)cc1c4c23` [Ellagic Acid, 2,3,7,8-Tetrahydroxy(1)benzopyrano (5,4,3-cde)-(1)benzopyran-5,10-dione], for which, in data set [1] (at 21° C.), the Solubility was < 1 mg/mL.

For the compound `O.O=C(O)c1cc(O)c(O)c(O)c1` [Gallic Acid Monohydrate], the Solubility in data set [1] (water at 20° C.) is 15 mg/mL.

With `O=C(O)c1cc(O)c(O)c(O)c1` [Non-Hydrated Gallic Acid, 3,4,5-trihydroxybenzoic acid], the Dissolution in water entry in data set [2] is listed as “does not dissolve or is very difficult to dissolve in water”.

In the case of `Oc1cccc(O)c1O` [Pyrogallic Acid, pyrogallol], the Solubility in water in data set [1] (at 20° C.) was 588.00 mg/mL (≈ 4660 mM).

Consider `O=c1c(O)c(-c2ccc(O)c(O)c2)oc2cc(O)cc(O)c12` [Quercetin, 2-(3,4-dihydroxyphenyl)-3,5,7-trihydroxy-4H-chromen-4-one], for which the Solubility in data set [1] (water) is 0.06 mg/mL (≈ 0.199 mM).

On to `Oc1ccc(/C=C/c2cc(O)cc(O)c2)cc1` [Resveratrol, 5-[(E)-2-(4-hydroxyphenyl)-ethenyl] benzene-1,3-diol], for which the figures for the Solubility in data set [1] (DMSO), in data set [1] (ethanol) and in data set [1] (water) were ~16 mg/mL (≈ 70.1 mM), 50 mg/mL (≈ 219 mM) and ~0.03 mg/mL (≈ 0.131 mM), respectively.

Source of the values: US20200128823A1, “ALGICIDAL, ALGISTATIC, HERBICIDAL AND HERBISTATIC TREATMENT OF WATER” (priority 2017, published 2020).
